Reference: article PMC9687610, “Adenosine-Mimicking Derivatives of 3-Aminopyrazine-2-Carboxamide: Towards Inhibitors of Prolyl-tRNA Synthetase with Antimycobacterial Activity” (Biomolecules, 2022)
Converted amounts (≈) assume the structure as drawn.

Experiments:
[1] = system: Mtb IZAK (multidrug-resistant clinical isolate); test: microbe, parasite or virus in culture; type: cell-based, Mycobacterium tuberculosis; settings: for MIC: Mycobacterium tuberculosis, read-out: Mtb IZAK MIC; for Mtb IZAK susceptibility class (R/S): MDR clinical isolate
[2] = system: Mtb MATI (multidrug-resistant clinical isolate); test: microbe, parasite or virus in culture; type: cell-based, Mycobacterium tuberculosis; settings: for MIC: Mycobacterium tuberculosis, read-out: Mtb MATI MIC; for Mtb MATI susceptibility class (R/S): MDR clinical isolate
Mtb laboratory ID IZAK = settings: MDR clinical isolate; external resistance profiling; cited from earlier work
Mtb laboratory ID MATI = settings: MDR clinical isolate; external resistance profiling; cited from earlier work

Structure (SMILES) | MIC [1] [µg/mL] | MIC [2] [µg/mL] | Mtb IZAK susceptibility class (R/S) [1] | Mtb IZAK MIC, value from external resistance profiling (*) (Mtb laboratory ID IZAK) [µg/mL] | Mtb MATI MIC, value from external resistance profiling (*) (Mtb laboratory ID MATI) [µg/mL] | Mtb MATI susceptibility class (R/S) [2]
Cc1ccc(C(=O)Nc2nccnc2C(N)=O)cc1 [Compound 4] | 12.5 (≈ 48.8 µM) | 12.5 (≈ 48.8 µM) |  |  |  | 
NC(=O)c1nccnc1NC(=O)c1ccc(F)cc1 [Compound 12] | 100 (≈ 384 µM) | 100 (≈ 384 µM) |  |  |  | 
NC(=O)c1nccnc1NC(=O)c1ccc(Cl)cc1 [Compound 15] | 12.5 (≈ 45.2 µM) | 12.5 (≈ 45.2 µM) |  |  |  | 
NC(=O)c1nccnc1NC(=O)c1ccc(Br)cc1 [Compound 18] | 12.5 (≈ 38.9 µM) | 12.5 (≈ 38.9 µM) |  |  |  | 
CC[C@@H](CO)NCCN[C@@H](CC)CO [EMB, ethambutol] | 0.39 (≈ 1.91 µM) | 0.39 (≈ 1.91 µM) | S | 0.5 | 0.5 | S
NNC(=O)c1ccncc1 [INH, isoniazid] | 4 (≈ 29.2 µM) | > 8 | R |  |  | R
NC(=O)c1cnccn1 [PZA, pyrazinamide] |  |  | R | > 16 | > 128 | R
CO[C@H]1/C=C/O[C@@]2(C)Oc3c(C)c(O)c4c(O)c(c(/C=N/N5CCN(C)CC5)c(O)c4c3C2=O)NC(=O)/C(C)=C\C=C\[C@H](C)[C@H](O)[C@@H](C)[C@@H](O)[C@@H](C)[C@H](OC(C)=O)[C@@H]1C [RIF, rifampicin] |  |  | R | > 8 | > 8 | R
[H]/N=C(/N)N[C@H]1[C@H](O)[C@@H](O)[C@H](O[C@@H]2O[C@@H](C)[C@](O)(C=O)[C@H]2O[C@@H]2O[C@@H](CO)[C@H](O)[C@@H](O)[C@@H]2NC)[C@@H](N/C(N)=N\[H])[C@@H]1O [STM, streptomycin] |  |  | R | 4 | > 16 | R
